# Experiments:
# [1] = target: T1, Prostaglandin G/H synthase 1 (Ovis aries, UniProt P05979); test: Inhibition of ovine COX1 using arachidonic acid as substrate preincubated for 10 mins followed by substrate addition and measured after 2 mins by EIA
# T1 sequence (P05979 whole entry): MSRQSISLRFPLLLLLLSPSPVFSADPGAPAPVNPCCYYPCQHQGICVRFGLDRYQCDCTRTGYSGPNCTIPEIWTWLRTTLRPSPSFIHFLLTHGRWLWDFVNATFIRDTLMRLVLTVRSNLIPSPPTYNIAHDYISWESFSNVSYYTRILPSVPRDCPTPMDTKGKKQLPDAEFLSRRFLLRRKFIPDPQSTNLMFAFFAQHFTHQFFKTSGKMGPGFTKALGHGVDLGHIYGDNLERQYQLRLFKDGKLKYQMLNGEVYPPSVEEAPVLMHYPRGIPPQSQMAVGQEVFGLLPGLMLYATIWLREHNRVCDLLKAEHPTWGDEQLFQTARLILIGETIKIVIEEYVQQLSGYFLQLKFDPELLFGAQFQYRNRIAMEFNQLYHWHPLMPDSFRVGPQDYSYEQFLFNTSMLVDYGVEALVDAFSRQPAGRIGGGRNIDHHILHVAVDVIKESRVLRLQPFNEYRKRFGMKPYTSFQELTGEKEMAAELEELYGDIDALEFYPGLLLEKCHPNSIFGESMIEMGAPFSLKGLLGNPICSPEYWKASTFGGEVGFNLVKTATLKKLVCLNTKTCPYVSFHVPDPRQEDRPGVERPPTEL
# [2] = Inhibition of soybean 15-LOX using arachidonic acid or linoleic acid as substrate preincubated for 5 mins followed by substrate addition and measured after 10 mins by colorimetric assay; parameters: species or system Glycine max
# Rattus norvegicus [3] = test: Antiinflammatory activity in albino rat assessed as reduction in carrageenan-induced paw edema by measuring thickness of right paw at 28 uM/kg, ip measured at 0.5 hrs by calliper method (reference value: 7.33 +/- 0.17 cm); assay type: functional
# Rattus norvegicus [4] = test: Antiinflammatory activity in albino rat assessed as reduction in carrageenan-induced paw edema by measuring thickness of right paw at 28 uM/kg, ip measured at 2 hrs by calliper method (reference value: 7.67 +/- 0.17 cm); assay type: functional
# Rattus norvegicus [5] = test: Antiinflammatory activity in albino rat assessed as reduction in carrageenan-induced paw edema by measuring thickness of right paw at 28 uM/kg, ip measured at 4 hrs by calliper method (reference value: 8.50 +/- 0.58 cm); assay type: functional
# Rattus norvegicus [6] = test: Antiinflammatory activity in albino rat assessed as reduction in carrageenan-induced paw edema by measuring thickness of right paw at 28 uM/kg, ip measured immediately by calliper method (reference value: 6.83 +/-0.17 cm); assay type: functional
# Rattus norvegicus [7] = test: Anti-inflammatory activity in albino rat assessed as inhibition of carrageenan-induced paw edema at 28 uM/kg, ip measured at 1 hr by calliper method relative to control; assay type: functional
# [8] = Ulcerogenic activity in albino rat assessed as congestion of blood vessel at 10 to 50 mg/kg, po measured after 6 hrs by H and E staining based light microscopic assay; assay type: toxicity, organism-based; conditions: in vivo
# [9] = Ulcerogenic activity in albino rat assessed as ulcer formation with distorted gastric gland at 10 to 50 mg/kg, po measured after 6 hrs by H and E staining based light microscopic assay; assay type: toxicity, organism-based; conditions: in vivo
# Rattus norvegicus [10] = test: Anti-inflammatory activity in albino rat assessed as inhibition of carrageenan-induced paw edema at 28 uM/kg, ip measured at 4 hrs by calliper method relative to control; assay type: functional
# Rattus norvegicus [11] = test: Anti-inflammatory activity in albino rat assessed as inhibition of carrageenan-induced paw edema at 28 uM/kg, ip measured at 3 hrs by calliper method relative to control; assay type: functional
# Rattus norvegicus [12] = test: Anti-inflammatory activity in albino rat assessed as inhibition of carrageenan-induced paw edema at 28 uM/kg, ip measured at 2 hrs by calliper method relative to control; assay type: functional
# Rattus norvegicus [13] = test: Antiinflammatory activity in albino rat assessed as reduction in carrageenan-induced paw edema by measuring thickness of right paw at 28 uM/kg, ip measured at 1 hr by calliper method (reference value: 7.33 +/- 0.17 cm); assay type: functional
# [14] = Ulcerogenic activity in albino rat assessed as damage of gastric mucosa surface epithelium at 10 to 50 mg/kg, po measured after 6 hrs by H and E staining based light microscopic assay; assay type: toxicity, organism-based; conditions: in vivo
# Rattus norvegicus [15] = test: Anti-inflammatory activity in albino rat assessed as inhibition of carrageenan-induced paw edema at 28 uM/kg, ip measured at 0.5 hrs by calliper method relative to control; assay type: functional
# [16] = Ulcerogenic activity in albino rat assessed as damage of scarred mucosal epithelium at 10 to 50 mg/kg, po measured after 6 hrs by H and E staining based light microscopic assay; assay type: toxicity, organism-based; conditions: in vivo
# Rattus norvegicus [17] = test: Antiinflammatory activity in albino rat assessed as reduction in carrageenan-induced paw edema by measuring thickness of right paw at 28 uM/kg, ip measured at 3 hrs by calliper method (reference value: 7.83 +/- 0.33 cm); assay type: functional
# [18] = target: T2, Prostaglandin G/H synthase 2 (Homo sapiens, UniProt P35354); test: Inhibition of COX2 (unknown origin)
# T2 sequence (P35354 whole entry): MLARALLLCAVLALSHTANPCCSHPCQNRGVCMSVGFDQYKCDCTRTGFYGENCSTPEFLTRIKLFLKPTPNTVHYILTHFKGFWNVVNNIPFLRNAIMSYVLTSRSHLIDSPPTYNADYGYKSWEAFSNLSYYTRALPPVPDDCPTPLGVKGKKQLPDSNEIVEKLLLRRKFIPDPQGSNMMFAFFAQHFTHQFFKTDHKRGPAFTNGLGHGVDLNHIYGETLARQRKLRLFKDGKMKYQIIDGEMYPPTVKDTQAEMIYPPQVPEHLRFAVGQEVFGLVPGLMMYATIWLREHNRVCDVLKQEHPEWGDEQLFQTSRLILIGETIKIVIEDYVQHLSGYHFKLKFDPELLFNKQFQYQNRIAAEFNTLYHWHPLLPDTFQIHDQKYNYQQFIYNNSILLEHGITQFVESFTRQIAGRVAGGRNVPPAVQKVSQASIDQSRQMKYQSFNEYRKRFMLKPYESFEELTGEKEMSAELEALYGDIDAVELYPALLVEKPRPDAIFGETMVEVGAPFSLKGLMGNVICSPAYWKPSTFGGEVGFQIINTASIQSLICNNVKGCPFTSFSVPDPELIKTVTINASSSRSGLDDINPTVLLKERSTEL
# [19] = target: Prostaglandin G/H synthase 1 (Homo sapiens, UniProt P23219); test: Inhibition of human COX1 expressed in CHO cells assessed as reduction in arachidonic acid-stimulated PGE2 production; assay type: cell-based
# Rattus norvegicus [20] = test: Anti-inflammatory activity in albino rat assessed as inhibition of carrageenan-induced paw edema at 28 uM/kg, ip measured at 3 hrs by calliper method relative to indomethacin; assay type: functional; parameters: scale not given: the % may be the effect or the level left
# Rattus norvegicus [21] = test: Anti-inflammatory activity in albino rat assessed as inhibition of carrageenan-induced paw edema at 28 uM/kg, ip measured at 4 hrs by calliper method relative to indomethacin; assay type: functional; parameters: scale not given: the % may be the effect or the level left
# [22] = Ulcerogenic activity in albino rat assessed as effect on gastric mucosa membrane at 10 to 50 mg/kg, po measured after 6 hrs by H and E staining based light microscopic assay; assay type: toxicity, organism-based; conditions: in vivo
# Sequence of Prostaglandin G/H synthase 1 (Homo sapiens, UniProt P23219) (P23219 whole entry): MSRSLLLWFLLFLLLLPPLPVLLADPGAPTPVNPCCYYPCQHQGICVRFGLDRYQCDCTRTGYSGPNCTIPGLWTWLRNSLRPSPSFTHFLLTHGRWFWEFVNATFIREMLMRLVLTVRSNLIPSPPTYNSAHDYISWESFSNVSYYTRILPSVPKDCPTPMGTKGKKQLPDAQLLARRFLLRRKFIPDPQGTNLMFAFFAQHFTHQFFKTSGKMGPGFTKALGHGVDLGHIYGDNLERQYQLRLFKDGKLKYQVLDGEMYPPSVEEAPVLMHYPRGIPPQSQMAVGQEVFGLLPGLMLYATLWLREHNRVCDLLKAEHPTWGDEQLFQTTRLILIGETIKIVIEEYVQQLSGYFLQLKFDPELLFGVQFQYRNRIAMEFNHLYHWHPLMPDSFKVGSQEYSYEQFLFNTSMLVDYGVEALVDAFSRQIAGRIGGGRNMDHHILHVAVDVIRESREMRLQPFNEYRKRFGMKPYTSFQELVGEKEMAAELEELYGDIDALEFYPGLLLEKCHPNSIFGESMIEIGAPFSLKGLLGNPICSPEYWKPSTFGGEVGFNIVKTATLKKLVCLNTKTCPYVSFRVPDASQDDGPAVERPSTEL
smiles,measurement,setting,value
CSc1nc2ccccc2n1-c1csc(NC/C(C)=N/N=c2\scc(-c3ccc(C)cc3)n2-c2ccccc2)n1,IC50,[1],13.2 µM
same,IC50,[2],2.14 µM
CSc1nc2ccccc2n1-c1csc(NC/C(C)=N/N=c2\scc(-c3ccccc3)n2-c2ccccc2)n1,IC50,[1],12.4 µM
same,IC50,[2],1.85 µM
CSc1nc2ccccc2n1-c1csc(NCC(=O)c2ccc(Cl)cc2)n1,IC50,[1],8.14 µM
same,IC50,[2],4.15 µM
CCn1c(-n2cc(/C=N/N=c3\[nH]c(-c4ccc(Br)cc4)cs3)c(-c3ccc(OC)cc3)n2)nc2c1c(=O)n(C)c(=O)n2C,IC50,[2],1.76 µM
COc1ccc2c(c1)c(CC(=O)O)c(C)n2C(=O)c1ccc(Cl)cc1 [INDOMETHACIN],Activity,Rattus norvegicus [3],5.83 cm
same,Activity,Rattus norvegicus [4],4.67 cm
same,Activity,Rattus norvegicus [5],4.17 cm
same,Activity,Rattus norvegicus [6],7.17 cm
same,inhibition (INH),Rattus norvegicus [7],54.17%
same,Activity,[8],Toxic
same,Activity,[9],Toxic
same,inhibition (INH),Rattus norvegicus [10],78.83%
same,inhibition (INH),Rattus norvegicus [11],69.37%
same,inhibition (INH),Rattus norvegicus [12],63.7%
same,Activity,Rattus norvegicus [13],5 cm
same,Activity,[14],Toxic
same,inhibition (INH),Rattus norvegicus [15],34.7%
same,Activity,[16],Toxic
same,Activity,Rattus norvegicus [17],4.5 cm
CSc1nc2ccccc2n1-c1csc2nc(-c3ccccc3)cn12,IC50,[1],5.97 µM
same,IC50,[2],5.46 µM
CSc1nc2ccccc2n1-c1csc(N)n1,IC50,[1],4.17 µM
same,IC50,[2],6.56 µM
O=[N+]([O-])c1ccc(-c2nnc(Cn3c(CN4CCCCC4)nc4ccccc43)o2)cc1,IC50,[18],0.06 to 0.81 µM
CCn1c(-n2cc(/C=N/N=C3/NC(=O)CS3)c(-c3ccc(OC)cc3)n2)nc2c1c(=O)n(C)c(=O)n2C,IC50,[2],1.98 µM
Fc1ccccc1-c1nnc(Cn2c(CN3CCCCC3)nc3ccccc32)o1,IC50,[18],0.06 to 0.81 µM
CS(=O)(=O)c1ccc(-c2c(-c3ccccc3)nc3sccn23)cc1,IC50,[19],> 50 µM
O=c1c(O)c(-c2ccc(O)c(O)c2)oc2cc(O)cc(O)c12 [QUERCETIN],IC50,[2],3.34 µM
CCn1c(-n2cc(/C=N/N=c3\scc(-c4ccc(Br)cc4)n3-c3ccccc3)c(-c3ccc(OC)cc3)n2)nc2c1c(=O)n(C)c(=O)n2C,IC50,[2],1.82 µM
Clc1ccc(-c2nnc(Cn3c(CN4CCCCC4)nc4ccccc43)o2)cc1,IC50,[18],0.06 to 0.81 µM
CSc1nc2ccccc2n1-c1csc(=N)n1CC(=O)c1ccccc1,IC50,[1],9.84 µM
same,IC50,[2],3.98 µM
CSc1nc2ccccc2n1-c1csc(NCC(C)=O)n1,IC50,[1],11.7 µM
same,IC50,[2],2.93 µM
CSc1nc2ccccc2n1-c1csc(NC/C(C)=N/N=c2\scc(-c3ccc(Cl)cc3)n2-c2ccccc2)n1,Activity,Rattus norvegicus [3],6.33 cm
same,Activity,Rattus norvegicus [4],5 cm
same,Activity,Rattus norvegicus [5],5.67 cm
same,Activity,Rattus norvegicus [6],7.17 cm
same,Activity,Rattus norvegicus [20],109.08%
same,inhibition (INH),Rattus norvegicus [7],46.27%
same,Activity,Rattus norvegicus [21],93.2%
same,inhibition (INH),Rattus norvegicus [11],75.67%
same,inhibition (INH),Rattus norvegicus [12],56.67%
same,Activity,Rattus norvegicus [13],5.33 cm
same,inhibition (INH),Rattus norvegicus [15],22.67%
same,IC50,[1],13.2 µM
same,Activity,Rattus norvegicus [17],4.67 cm
same,IC50,[2],1.67 µM
CSc1nc2ccccc2n1-c1csc(NC/C(C)=N/N=C2\SCC(=O)N2c2ccccc2)n1,Activity,Rattus norvegicus [3],5.67 cm
same,Activity,Rattus norvegicus [4],4.17 cm
same,Activity,Rattus norvegicus [5],4.5 cm
same,Activity,Rattus norvegicus [6],7 cm
same,Activity,Rattus norvegicus [20],119.4%
same,inhibition (INH),Rattus norvegicus [7],61.6%
same,Activity,[22],Non-Toxic
same,Activity,[8],Toxic
same,inhibition (INH),Rattus norvegicus [10],80.57%
same,Activity,Rattus norvegicus [21],102.21%
same,inhibition (INH),Rattus norvegicus [11],82.83%
same,inhibition (INH),Rattus norvegicus [12],74.83%
same,Activity,Rattus norvegicus [13],4.67 cm
same,inhibition (INH),Rattus norvegicus [15],38.4%
same,IC50,[1],10.6 µM
same,Activity,Rattus norvegicus [17],3.83 cm
same,IC50,[2],1.96 µM
O=C1N/C(=N\c2nnc(-c3ccc(O)cc3)s2)S/C1=C\c1ccc(Cl)c(Cl)c1,IC50,[2],11.9 µM
CSc1nc2ccccc2n1-c1csc(NC(=O)c2ccc(Cl)cc2)n1,IC50,[1],7.11 µM
same,IC50,[2],5.11 µM
CSc1nc2ccccc2n1-c1csc(NC(=O)c2ccc(C)cc2)n1,IC50,[1],6.23 µM
same,IC50,[2],4.96 µM
CSc1nc2ccccc2n1-c1csc(NC(=O)c2ccccc2)n1,IC50,[1],5.33 µM
same,IC50,[2],4.12 µM
CSc1nc2ccccc2n1-c1csc(NC/C(C)=N/NC(=S)Nc2ccccc2)n1,Activity,Rattus norvegicus [3],5.67 cm
same,Activity,Rattus norvegicus [4],4.67 cm
same,Activity,Rattus norvegicus [5],5.5 cm
same,Activity,Rattus norvegicus [6],7.33 cm
same,Activity,Rattus norvegicus [20],102.31%
same,inhibition (INH),Rattus norvegicus [7],53.73%
same,inhibition (INH),Rattus norvegicus [10],68.8%
same,Activity,Rattus norvegicus [21],87.28%
same,inhibition (INH),Rattus norvegicus [11],70.97%
same,inhibition (INH),Rattus norvegicus [12],64.1%
same,Activity,Rattus norvegicus [13],5 cm
same,inhibition (INH),Rattus norvegicus [15],38.43%
same,IC50,[1],10.7 µM
same,Activity,Rattus norvegicus [17],4.83 cm
same,IC50,[2],2.98 µM
Fc1ccc(-c2nnc(Cn3c(CN4CCCCC4)nc4ccccc43)o2)cc1,IC50,[18],0.06 to 0.81 µM

# Source: ChEMBL document CHEMBL4627319, “Novel class of benzimidazole-thiazole hybrids: The privileged scaffolds of potent anti-inflammatory activity with dual inhibition of cyclooxygenase and 15-lipoxygenase enzymes” (Bioorg Med Chem, 2020)
